Experiment [1] deals with immune mediated-nephrotoxic nephritis (NTN) in Wistar Kyoto (WKY) rats. Description: Animal model for crescentic glomerulonephritis (nephrotoxic nephritis). The experiment is classed as in vivo, rat. The text has this: This model is recognized in the art as predictable to show the effects of the invention. It is suitable to show the effects of the combination therapy over the complete range of diseases which can be subsumed under the above definition of “MIF related diseases” particularly, this model is suitable for the following diseases: Lupus nephritis, anti-GBM nephritis, ANCA nephritis, IgA nephropathy. Dexamethasone is recognized in the art as predictive for a respective glucocorticoid in the treatment of a human. […] This model has a rapid onset of disease with macrophage infiltration, fibrin deposition and tissue destruction 12. NTN is induced in male WKY rats by single intravenous injection of 0.1 ml rabbit anti-rat glomerular basement membrane serum (day 0). mAb and Dexamethasone is injected intraperitoneally at time points and dosages described below. 24 hour urine samples are collected using metabolic cages before induction of glomerulonephritis and at various time intervals after induction of nephritis for quantification of proteinuria. Sections of renal tissues are frozen for subsequent analysis by immunohistology. Morphology of renal injury is assessed in haematoxylin/eosin (H&E) and periodic acid-Schiff (PAS) stained renal tissue sections. Macrophage is detected by immunoperoxidase technique and using the monoclonal mouse antibody ED1 (Serotec, U C). The animal model was described in detail (Tam F W K, Smith J, Morel D, Karkar A M, Thompson E M, Cook H T, Pusey C D: Development of scarring and renal failure in a rat model of crescentic glomerulonephritis. Nephrol Dial Transplant 14:1658-1666, 1999).

Experiment [2] has as its system Contact hypersensitivity (CHS) response to 2,4-dinitrofluorobenzene (DNFB) in C57BL/6 mice. As to the kind of experiment: Contact hypersensitivity (CHS) response to DNFB, ear swelling. The experiment is classed as in vivo, mouse. The note with it: topical. The method, then:
The Contact hypersensitivity (CHS) response to 2,4-dinitrofluorobenzene (DNFB) was determined using a modification of an earlier model described (see Ludwig, et al., 2010, Am J Pathol 176, 1339-1345). C57BL/6 mice were sensitized by treating the shaved mouse back skin with 75 μl of DNFB (Sigma, St. Louis, Mo.) solution (0.5% in acetone/olive oil, 4/1). […] the right ears of the mice were challenged with 20 μl 0.3% DNFB to cause a local inflammatory response. The vehicle (acetone/olive) oil was applied to the left ears as a control. The swelling response to DNFB, specified as the difference between the right and left ears, was measured 24 h after challenge using a micrometer (Mitutoyo Co., Tokyo, Japan). 8 mice were used per group.

Where [3] appears, read: single intraperitoneal injection of 0.25 mg/kg, 4 days after induction, day 8.

As to `C[C@@H]1C[C@H]2[C@@H]3CCC4=CC(=O)C=C[C@]4(C)[C@@]3(F)[C@@H](O)C[C@]2(C)[C@@]1(O)C(=O)CO` [Dexamethasone, reference compound], in experiment [1] (dose finding), the suboptimal dexamethasone concentration is recorded as 0.025 mg/kg. In experiment [1] (setting [3]), the “reduction of crescent counts” value is given as “approximately 25%” and the “reduction of glomerular macrophage infiltration” value is reported as “approximately 53%”. In addition, in experiment [1] (single intraperitoneal injection of 0.25 mg/kg, 4 days after induction, urine day 7 to day 8), the reduction of proteinuria result is recorded as “approximately 50%”.

With `C[C@]12CCC(=O)C=C1CC[C@@H]1[C@@H]2[C@@H](O)C[C@@]2(C)[C@H]1CC[C@]2(O)C(=O)CO` [hydrocortisone], the “anti-inflammatory effects, ear thickness” value in experiment [2] (1% in DAC base cream ointment, without antibody) is on record as “sub-optimal anti-inflammatory effects”. In addition, in experiment [2] (suboptimal dose 1% in DAC base cream, in combination with 10 mg/kg isotype control antibody), the ear swelling entry is given as “did not reduce ear swelling”.

Source of the values: patent US20210187105A1, “COMBINATION THERAPY OF ANTI-MIF ANTIBODIES AND GLUCOCORTICOIDS” (Baxalta Incorporated, priority 2012, published 2021).
